Test results as given in patent publication US20040081972A1, “Novel physiologically active peptide and use thereof” (priority 2000, published 2004).
[ ]: non-standard residue; d: D form. LYB = not defined here

Assays:
Type in all cases: cell-based
[1] = system: thymus, abdominal muscle, diaphragm, kidney, crystalline lens, pancreas, fat tissue, liver, blood vessel, ovary, womb and adrenal gland; experiment: Intracellular calcium (aequorin luminescence) in organs other than the spleen and skull of apoaequorin transgenic mouse
Description: In order to measure changes in the concentration of an intracellular signal transduction substance in cells constituting the organs, a transgenic mouse prepared by integrated an apoaequorin gene expression vector into a chromosome was used. […] The transgenic mouse was prepared and reared as an SPF animal in a clean room, and was not contaminated with pathogens including mouse hepatitis virus, Sendai virus, mycoplasma and Tyzzer bacterium.

[2] = system: blood vessel of an apoaequorin transgenic mouse; experiment: Intracellular calcium (aequorin luminescence) in blood vessel pieces of apoaequorin transgenic mouse
Description: (§1) In order to evaluate physiological activities of the peptides prepared in Example 1, the prepared peptides were allowed to act upon organs excised from the living body, and changes in the concentration of an intracellular signal transduction substance in cells constituting the organs were measured.
(§2) In order to measure changes in the concentration of an intracellular signal transduction substance in cells constituting the organs, a transgenic mouse prepared by integrated an apoaequorin gene expression vector into a chromosome was used. Specifically, a female mouse derived from the transgenic mouse disclosed in Reference Example 4 as an individual number 98075-04-6 was used in the test. The transgenic mouse was prepared and reared as an SPF animal in a clean room, and was not contaminated with pathogens including mouse hepatitis virus, Sendai virus, mycoplasma and Tyzzer bacterium.
(§3) Aequorin is a bioluminescent protein complex which is present in the umbrella region of luminescent Aequorea victoria. Aequorin is constituted from its protein moiety apoaequorin, its luminescence substrate coelent razin and molecular oxygen, and emits light by its binding with calcium ion. Since expression of the apoaequorin protein has been confirmed in at least thymus, spleen, abdominal muscle, diaphragm, kidney, crystalline lens, pancreas, fat tissue, liver, skull, blood vessel, ovary, womb and adrenal gland of the transgenic mouse used in the test, it was able to monitor changes in the intracellular calcium ion concentration in these organs with a high sensitivity.
(§4) Organs were prepared from offsprings borne from the female of individual number 98075-04-6 to examine the activities of the peptides produced in Example 1. After the offsprings were killed, the thymus, spleen, abdominal muscle, diaphragm, kidney, crystalline lens, pancreas, fat tissue, liver, skull, blood vessel, ovary, womb and adrenal gland were excised. Each of the excised organs was cut into small cubes of about 1 to 2 mm square in PBS containing 10 units/ml of heparin sodium and thoroughly washed by changing the solution. Next, three pieces of each of the organ samples thus prepared were put into a 5 ml capacity tube (Rohren-Tubes; No. 55.476, manufactured by Sarstedt) which had been charged with RPMI 1640 medium containing 200 μl of 10 μmol/l coelenterazine (manufactured by Molecular Probes), and cultured at 37° C. for 5 hours. Five hours after, various substances shown below dissolved in RPMI 1640 medium were added at 200 μl, and the luminescence was measured just after the addition at 1 second intervals using a luminometer AutoLumat LB953 (manufactured by BERTHOLD).

[3] = system: spleen of an apoaequorin transgenic mouse; experiment: Intracellular calcium (aequorin luminescence) in spleen pieces of apoaequorin transgenic mouse; conditions: for physiological activity (the activity found in Peptide 1 or Peptide 3): purified samples, method of Example 3
Description: as §1, §2, §3, §4
Organs were prepared from offsprings borne from the female of individual number 98075-04-6 to examine the activities of the peptides produced in Example 1. After the offsprings were killed, the spleen was excised. The excised spleen was cut into small cubes of about 1 to 2 mm square in PBS containing 10 units/ml of heparin sodium and thoroughly washed by changing the solution. Next, three pieces of the prepared spleen sample were put into a 5 ml capacity tube (Rohren-Tubes; No. 55.476, manufactured by Sarstedt) which had been charged with RPMI 1640 medium containing 200 μl of 10 μmol/l coelenterazine (manufactured by Molecular Probes), and cultured at 37° C. for 5 hours. Five hours after, various substances shown below dissolved in RPMI 1640 medium were added at 200 μl, and the luminescence was measured just after the addition at 1 second intervals using a luminometer AutoLumat LB953 (manufactured by BERTHOLD).
RPMI 1640, a peptide prepared in Example 1 (final concentration: 10 nmol/l), a peptide prepared in Example 1 (final concentration: 100 nmol/l), a peptide prepared in Example 1 (final concentration: 1 μmol/l), a peptide prepared in Example 1 (final concentration; 10 μmol/l), ATP (final concentration: 100 μmol/l), A23187 (final concentration: 1 μmol/l) and Triton X-100 (final concentration: 2%) were added in order. […]

[4] = system: thymus of an apoaequorin transgenic mouse; experiment: Intracellular calcium (aequorin luminescence) in thymus pieces of apoaequorin transgenic mouse
Description: as §1
as §2, with “The transgenic mouse was prepared and reared as an SPF animal in a clean room, and was not contaminated with pathogens including mouse hepatitis virus, Sendai virus, mycoplasma and Tyzzer bacterium.” left out
Aequorin is a bioluminescent protein complex which is present in the umbrella region of luminescent Aequorea victoria. Aequorin is constituted from its protein moiety apoaequorin, its luminescence substrate coelent razin and molecular oxygen, and emits light by its binding with calcium ion. […]
Organs were prepared from offsprings borne from the female of individual number 98075-04-6 to examine the activities of the peptides produced in Example 1. […] Five hours after, various substances shown below dissolved in RPMI 1640 medium were added at 200 μl, and the luminescence was measured just after the addition at 1 second intervals using a luminometer AutoLumat LB953 (manufactured by BERTHOLD).

[5] = system: skull (cranial bone) of an apoaequorin transgenic mouse; experiment: Intracellular calcium (aequorin luminescence) in skull (cranial bone) pieces of apoaequorin transgenic mouse; conditions: final concentration 10 μmol/l
Description: as §1, §2, §3, §4

[6] = system: spleen of an apoaequorin transgenic mouse; experiment: Intracellular calcium (aequorin luminescence) in spleen pieces of apoaequorin transgenic mouse
[7] = 10 nmol/l, 100 nmol/l, 1 μmol/l, 10 μmol/l added in order

## Nc1ncnc2c1ncn2[C@@H]1O[C@H](COP(=O)(O)OP(=O)(O)OP(=O)(O)O)[C@@H](O)[C@H]1O [ATP]
[1]; final concentration 100 μmol/l
  luminescence (intracellular calcium increase): luminescence was observed
[2]; final concentration 100 μmol/l
  luminescence (intracellular calcium increase): Strong luminescence
[3]; final concentration 100 μmol/l
  luminescence (intracellular calcium increase): Strong luminescence
[4]; final concentration 100 μmol/l
  luminescence (intracellular calcium increase): Strong luminescence

## C[N+](C)(C)CCOC(N)=O [carbachol]
[2]; final concentration 10 μmol/l
  luminescence (intracellular calcium increase): Strong luminescenc

## H-Met-Met-Glu-Lys-Leu-Gly-Val-Pro-Lys-Thr-His-Leu-Glu-Met-Lys-Lys-Met-Ile-Ser-Glu-Val-Thr-Gly-Gly-Val-Ser-Asp-Thr-Ile-Ser-Tyr-Arg-Asp-Phe-Val-Asn-Met-Met-Leu-NH2 (H-MMEKLGVPKTHLEMKKMISEVTGGVSDTISYRDFVNMML-NH2) [Peptide 3]
[5]
  luminescence (intracellular calcium increase): Strong luminescence
[3]; [7]
  final concentration from which concentration-dependent luminescence was observed: 1 µmol/L
[3]; final concentration 10 μmol/l
  luminescence (intracellular calcium increase): Strong luminescence
[6]; final concentration 8 μmol/l
  luminescence (intracellular calcium increase): Strong luminescence

## CNC[C@H](O)c1cccc(O)c1 [phenylephrine]
[2]; final concentration 20 μmol/l
  luminescence (intracellular calcium increase): Strong luminescence
[4]; final concentration 20 μmol/l
  luminescence (intracellular calcium increase): Strong luminescence

## H-Leu-Ser-Pro-His-Thr-Lys-Leu-Ser-Tyr-Arg-Glu-Glu-Val-Phe-Leu-Arg-Leu-Ser-Lys-Ser-Glu-Gly-Leu-Met-Glu-Ile-LYB-Leu-Met-Glu-Asp-Leu-Met-val-Phe-Ser-Arg-Thr-Gly-NH2 (H-LSPHTKLSYREEVFLRLSKSEGLMEI[LYB]LMEDLM[dV]FSRTG-NH2; reading uncertain) [Peptide 2S]
[5]
  luminescence (intracellular calcium increase): not detected
[3]; final concentration 10 μmol/l
  luminescence (intracellular calcium increase): not detected

## Triton X-100
[1]; final concentration 2%
  luminescence: luminescence was observed

## CC[C@H](C)[C@H](NC(=O)[C@H](CC(=O)O)NC(=O)[C@H](CC(C)C)NC(=O)[C@H](Cc1c[nH]cn1)NC(=O)[C@@H]1CSSC[C@H](N)C(=O)N[C@@H](CO)C(=O)N[C@H]2CSSC[C@H](NC(=O)[C@H](CCC(=O)O)NC(=O)[C@H](CCCCN)NC(=O)[C@H](CC(=O)O)NC(=O)[C@H](CCSC)NC(=O)[C@H](CC(C)C)NC(=O)[C@H](CO)NC(=O)[C@H](CO)NC2=O)C(=O)N[C@@H](C(C)C)C(=O)N[C@@H](Cc2ccc(O)cc2)C(=O)N[C@@H](Cc2ccccc2)C(=O)N1)C(=O)N[C@H](C(=O)N[C@@H](Cc1c[nH]c2ccccc12)C(=O)O)[C@@H](C)CC [endothelin]
[2]; final concentration 10 nmol/l
  luminescence (intracellular calcium increase): Strong luminescence

## CNc1ccc2oc(C[C@H]3O[C@@]4(CC[C@H]3C)O[C@H]([C@H](C)C(=O)c3ccc[nH]3)[C@H](C)C[C@H]4C)nc2c1C(=O)O [Peptide A23187, A23187]
[1]; final concentration 1 μmol/l
  luminescence (intracellular calcium increase): luminescence was observed

## H-Met-Leu-Glu-Lys-Leu-Gly-Val-Pro-Lys-Thr-His-Leu-Glu-Leu-Lys-Lys-Leu-Ile-Gly-Glu-Val-Ser-Ser-Gly-Ser-Gly-Glu-Thr-Phe-Ser-Tyr-Pro-Asp-Phe-Leu-Arg-Met-Met-Leu-NH2 (H-MLEKLGVPKTHLELKKLIGEVSSGSGETFSYPDFLRMML-NH2) [Peptide 1]
[5]
  luminescence (intracellular calcium increase): Strong luminescence
[3]; [7]
  concentration at which luminescence accompanied by the increased intracellular calcium was observed: 10 µmol/L
[3]; final concentration 10 μmol/l
  luminescence (intracellular calcium increase): Strong luminescence
[6]; final concentration 6 μmol/l
  luminescence (intracellular calcium increase): Strong luminescence

## H-Leu-Ser-Pro-His-Thr-Lys-Leu-Ser-Tyr-Gly-Glu-Gly-Val-Phe-Leu-Arg-Leu-Ser-Lys-Ser-Glu-Gly-Leu-Met-Glu-Ile-Lys-Leu-Met-Glu-Asp-Leu-Met-Val-Phe-Pro-Lys-Thr-Gly-NH2 (H-LSPHTKLSYGEGVFLRLSKSEGLMEIKLMEDLMVFPKTG-NH2) [Peptide 1S]
[5]
  luminescence (intracellular calcium increase): not detected
[3]; final concentration 10 μmol/l
  luminescence (intracellular calcium increase): not detected

## H-Met-Leu-Glu-Lys-Leu-Gly-Val-Pro-Lys-Thr-His-Leu-Glu-Leu-Lys-Arg-Leu-Ile-Arg-Glu-Val-Ser-Ser-Gly-Ser-Glu-Glu-Thr-Phe-Ser-Tyr-Ser-Asp-Phe-Leu-Arg-Met-Met-Leu-NH2 (H-MLEKLGVPKTHLELKRLIREVSSGSEETFSYSDFLRMML-NH2) [Peptide 2]
[5]
  luminescence (intracellular calcium increase): Strong luminescence
[3]; [7]
  final concentration from which concentration-dependent luminescence was observed: 0.1 µmol/L
[3]; final concentration 10 μmol/l
  luminescence (intracellular calcium increase): Strong luminescence

## H-Val-Thr-Pro-His-Thr-Lys-Leu-Val-Tyr-Ser-Glu-Ser-Val-Ile-Met-Asn-Met-Ser-Lys-Gly-Glu-Gly-Leu-Met-Glu-Ile-Lys-Leu-Met-Asp-Asp-Met-Met-Thr-Phe-Arg-Lys-val-Gly-NH2 (H-VTPHTKLVYSESVIMNMSKGEGLMEIKLMDDMMTFRK[dV]G-NH2; SMILES CC[C@H](C)[C@H](NC(=O)[C@H](CCC(=O)O)NC(=O)[C@H](CCSC)NC(=O)[C@H](CC(C)C)NC(=O)CNC(=O)[C@H](CCC(=O)O)NC(=O)CNC(=O)[C@H](CCCCN)NC(=O)[C@H](CO)NC(=O)[C@H](CCSC)NC(=O)[C@H](CC(N)=O)NC(=O)[C@H](CCSC)NC(=O)[C@@H](NC(=O)[C@@H](NC(=O)[C@H](CO)NC(=O)[C@H](CCC(=O)O)NC(=O)[C@H](CO)NC(=O)[C@H](Cc1ccc(O)cc1)NC(=O)[C@@H](NC(=O)[C@H](CC(C)C)NC(=O)[C@H](CCCCN)NC(=O)[C@@H](NC(=O)[C@H](Cc1c[nH]cn1)NC(=O)[C@@H]1CCCN1C(=O)[C@@H](NC(=O)[C@@H](N)C(C)C)[C@@H](C)O)[C@@H](C)O)C(C)C)C(C)C)[C@@H](C)CC)C(=O)N[C@@H](CCCCN)C(=O)N[C@@H](CC(C)C)C(=O)N[C@@H](CCSC)C(=O)N[C@@H](CC(=O)O)C(=O)N[C@@H](CC(=O)O)C(=O)N[C@@H](CCSC)C(=O)N[C@@H](CCSC)C(=O)N[C@H](C(=O)N[C@@H](Cc1ccccc1)C(=O)N[C@@H](CCCNC(=N)N)C(=O)N[C@@H](CCCCN)C(=O)N[C@@H](C(=O)NCC(N)=O)C(C)C)[C@@H](C)O) [Peptide 3S]
[5]
  luminescence (intracellular calcium increase): not detected
[3]; final concentration 10 μmol/l
  luminescence (intracellular calcium increase): not detected

## H-Leu-Ile-Arg-Glu-Val-Ser-Ser-Gly-Ser-Glu-Glu-Thr-Phe-Ser-Tyr-Ser-Asp-Phe-Leu-Arg-Met-Met-Leu-NH2 (H-LIREVSSGSEETFSYSDFLRMML-NH2) [Peptide 2 short]
[3]; [7]
  final concentration from which concentration-dependent luminescence was observed: 1 µmol/L
[3]; fraction of Peptide 2 activity
  activity maintained relative to the activity of Peptide 2: 1/10

B1: AIF-1: precursor protein comprising the amino acid sequence represented by SEQ ID NO:1; purified after FXa cleavage of MBP fusion (protein, listed as Homo sapiens)
chain: MSQTRDLQGGKAFGLLKAQQEERLDEINKQFLDDPKYSSDEDLPSKLEGFKEKYMEFDLNGNGDIDIMSLKRMLEKLGVPKTHLELKKLIGEVSSGSGETFSYPDFLRMMLGKRSAILKMILMYEEKAREKEKPTGPPAKKAISELP
[3]
  physiological activity (the activity found in Peptide 1 or Peptide 3): not observed

B2: AIF-2: precursor protein comprising the amino acid sequence represented by SEQ ID NO:5; purified after FXa cleavage of MBP fusion (protein, listed as Homo sapiens)
chain: MSGELSNRFQGGKAFGLLKARQERRLAEINRELLCDQKYSDEENLPEKLTAFKEKYMEFDLNNEGEIDLMSLKRMMEKLGVPKTHLEMKKMISEVTGGVSDTISYRDFVNMMLGKRSAVLKLVMMFEGKANESSPKPVGPPPERDIASLP
[3]
  physiological activity (the activity found in Peptide 1 or Peptide 3): not observed
